The structures appear in SMILES notation.

The text below walks through data of ChEMBL document CHEMBL1909046, “DrugMatrix in vitro pharmacology data”.

Assay [1] has as its target T1, Muscarinic acetylcholine receptor M2 (Homo sapiens, UniProt P08172). Note: in other assays of this panel Not Active means under 50% inhibition at 10 µM.
T1 sequence (P08172 whole entry): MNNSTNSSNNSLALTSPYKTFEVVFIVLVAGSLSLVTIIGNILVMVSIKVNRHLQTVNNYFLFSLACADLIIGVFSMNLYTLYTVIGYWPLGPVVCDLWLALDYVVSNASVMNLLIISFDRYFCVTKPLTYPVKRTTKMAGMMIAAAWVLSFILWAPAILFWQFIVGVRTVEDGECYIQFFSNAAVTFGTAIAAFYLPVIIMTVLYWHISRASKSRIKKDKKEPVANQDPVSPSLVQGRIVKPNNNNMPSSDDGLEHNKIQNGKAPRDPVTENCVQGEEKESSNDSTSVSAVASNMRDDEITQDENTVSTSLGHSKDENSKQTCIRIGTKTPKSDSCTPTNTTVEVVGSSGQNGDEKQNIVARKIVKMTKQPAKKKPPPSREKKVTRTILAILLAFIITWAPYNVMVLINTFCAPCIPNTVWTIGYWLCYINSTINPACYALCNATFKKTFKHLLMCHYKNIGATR
It is filed as cell membranes, CHO-K1, Membrane. The note with it: cho-k1.

Assay [2] concerns the target 5-hydroxytryptamine receptor 1B (Rattus norvegicus, UniProt P28564). It is filed as cell membranes, Wistar, Cerebral cortex, Membrane. Note: in other assays of this panel Not Active means under 50% inhibition at 10 µM.
The target in assay [3] is T2, Type-2 angiotensin II receptor (Homo sapiens, UniProt P50052). Note: in other assays of this panel Not Active means under 50% inhibition at 10 µM.
T2 sequence (P50052 whole entry): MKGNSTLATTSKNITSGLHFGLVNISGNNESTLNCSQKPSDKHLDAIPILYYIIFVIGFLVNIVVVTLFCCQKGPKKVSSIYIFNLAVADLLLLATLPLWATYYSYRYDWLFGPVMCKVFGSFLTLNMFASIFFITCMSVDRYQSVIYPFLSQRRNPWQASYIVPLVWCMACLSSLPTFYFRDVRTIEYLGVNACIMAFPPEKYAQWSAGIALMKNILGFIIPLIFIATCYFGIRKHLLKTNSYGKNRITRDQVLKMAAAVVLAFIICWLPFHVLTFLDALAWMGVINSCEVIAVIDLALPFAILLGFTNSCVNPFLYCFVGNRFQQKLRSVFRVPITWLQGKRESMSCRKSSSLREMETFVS
It is filed as cell-based. The note with it: cho-k1.

The target of assay [4] is T3, Alpha-1B adrenergic receptor (Rattus norvegicus, UniProt P15823).
T3 sequence (P15823 whole entry): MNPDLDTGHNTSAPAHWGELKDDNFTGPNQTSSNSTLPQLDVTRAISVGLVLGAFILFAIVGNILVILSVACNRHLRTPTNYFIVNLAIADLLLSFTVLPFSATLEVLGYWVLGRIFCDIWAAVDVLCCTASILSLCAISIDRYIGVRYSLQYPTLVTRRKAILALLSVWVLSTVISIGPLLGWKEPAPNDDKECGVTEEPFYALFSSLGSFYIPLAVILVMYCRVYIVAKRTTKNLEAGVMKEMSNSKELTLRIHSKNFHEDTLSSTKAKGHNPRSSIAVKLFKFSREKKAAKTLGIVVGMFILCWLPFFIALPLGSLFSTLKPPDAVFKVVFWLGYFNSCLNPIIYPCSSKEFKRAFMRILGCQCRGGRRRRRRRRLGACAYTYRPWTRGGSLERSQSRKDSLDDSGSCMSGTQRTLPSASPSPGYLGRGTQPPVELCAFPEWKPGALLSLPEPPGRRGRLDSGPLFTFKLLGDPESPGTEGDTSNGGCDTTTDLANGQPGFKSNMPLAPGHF
Kind of assay: DRUGMATRIX: Alpha-1B adrenergic receptor radioligand binding (ligand: prazosin). It is filed as cell membranes, Wistar, Liver, Membrane. To be noted: Not Active = under 50% inhibition at 10 µM.

For assay [5], the target named is T4, Alpha-1A adrenergic receptor (Rattus norvegicus, UniProt P43140).
T4 sequence (P43140 whole entry): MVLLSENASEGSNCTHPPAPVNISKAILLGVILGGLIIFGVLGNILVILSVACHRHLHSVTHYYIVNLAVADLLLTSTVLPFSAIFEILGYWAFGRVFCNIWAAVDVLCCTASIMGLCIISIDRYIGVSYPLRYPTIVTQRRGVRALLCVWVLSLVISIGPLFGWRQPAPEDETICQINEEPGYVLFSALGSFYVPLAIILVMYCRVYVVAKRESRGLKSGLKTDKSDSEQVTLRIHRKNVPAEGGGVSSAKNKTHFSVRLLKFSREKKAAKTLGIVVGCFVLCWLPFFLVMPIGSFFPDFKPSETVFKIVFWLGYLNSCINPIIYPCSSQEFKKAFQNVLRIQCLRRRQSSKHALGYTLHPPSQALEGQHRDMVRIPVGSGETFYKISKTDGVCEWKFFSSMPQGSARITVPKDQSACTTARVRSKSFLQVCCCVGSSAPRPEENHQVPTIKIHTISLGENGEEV
In words: DRUGMATRIX: Alpha-1A adrenergic receptor radioligand binding (ligand: prazosin). It is filed as cell membranes, Wistar, Submaxillary gland, Membrane. To be noted: Not Active = under 50% inhibition at 10 µM.

Assay [6] addresses T5, 3-hydroxy-3-methylglutaryl-coenzyme A reductase (Homo sapiens, UniProt P04035).
T5 sequence (P04035 whole entry): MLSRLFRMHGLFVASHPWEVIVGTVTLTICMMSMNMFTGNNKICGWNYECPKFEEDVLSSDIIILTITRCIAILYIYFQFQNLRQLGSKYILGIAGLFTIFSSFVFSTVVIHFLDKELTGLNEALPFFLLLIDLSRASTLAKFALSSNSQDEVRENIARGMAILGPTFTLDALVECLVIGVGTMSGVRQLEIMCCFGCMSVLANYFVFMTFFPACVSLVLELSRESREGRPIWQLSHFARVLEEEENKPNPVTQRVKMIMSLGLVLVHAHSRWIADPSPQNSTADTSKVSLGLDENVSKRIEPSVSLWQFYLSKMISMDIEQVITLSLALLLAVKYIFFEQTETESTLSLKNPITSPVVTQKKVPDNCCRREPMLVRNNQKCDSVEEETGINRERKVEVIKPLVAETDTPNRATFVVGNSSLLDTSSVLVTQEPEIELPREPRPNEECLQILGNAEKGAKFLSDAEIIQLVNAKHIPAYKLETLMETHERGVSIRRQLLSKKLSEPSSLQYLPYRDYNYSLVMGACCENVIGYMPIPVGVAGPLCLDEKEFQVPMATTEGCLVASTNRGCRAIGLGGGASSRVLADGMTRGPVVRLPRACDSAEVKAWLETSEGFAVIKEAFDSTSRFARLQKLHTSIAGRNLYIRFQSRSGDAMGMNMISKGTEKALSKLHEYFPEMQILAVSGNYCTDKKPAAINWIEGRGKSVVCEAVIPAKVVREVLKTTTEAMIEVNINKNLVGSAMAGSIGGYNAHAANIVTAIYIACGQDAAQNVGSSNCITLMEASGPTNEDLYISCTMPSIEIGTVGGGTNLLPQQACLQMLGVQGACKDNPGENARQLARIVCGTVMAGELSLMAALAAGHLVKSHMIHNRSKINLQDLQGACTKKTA
Set-up: species or system Escherichia coli.

Assay [7] deals with C-C chemokine receptor type 5 (Homo sapiens, UniProt P51681). It is filed as cell membranes, HEK293, Membrane.
Chain of C-C chemokine receptor type 5 (P51681 whole entry): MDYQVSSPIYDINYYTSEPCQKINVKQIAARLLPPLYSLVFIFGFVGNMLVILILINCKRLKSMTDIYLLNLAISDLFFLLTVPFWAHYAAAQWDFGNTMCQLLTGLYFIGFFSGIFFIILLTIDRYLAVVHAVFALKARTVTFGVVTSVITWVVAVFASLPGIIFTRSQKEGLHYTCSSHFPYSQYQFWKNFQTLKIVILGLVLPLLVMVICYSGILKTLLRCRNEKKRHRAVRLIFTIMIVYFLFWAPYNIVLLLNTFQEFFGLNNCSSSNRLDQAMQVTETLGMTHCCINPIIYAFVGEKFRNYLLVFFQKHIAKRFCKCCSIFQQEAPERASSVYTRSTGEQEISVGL

Chain of 5-hydroxytryptamine receptor 1B (P28564 whole entry): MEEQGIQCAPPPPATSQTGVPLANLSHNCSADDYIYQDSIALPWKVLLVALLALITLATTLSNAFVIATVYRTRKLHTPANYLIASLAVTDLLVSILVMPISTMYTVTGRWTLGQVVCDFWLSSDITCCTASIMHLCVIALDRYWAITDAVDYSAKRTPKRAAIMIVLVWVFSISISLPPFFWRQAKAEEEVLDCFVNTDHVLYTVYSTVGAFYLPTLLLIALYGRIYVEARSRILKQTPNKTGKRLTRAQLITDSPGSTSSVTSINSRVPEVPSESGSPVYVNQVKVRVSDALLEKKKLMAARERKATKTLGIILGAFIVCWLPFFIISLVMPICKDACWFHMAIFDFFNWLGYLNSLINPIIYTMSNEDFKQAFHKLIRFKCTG

As a reminder, the IC50 is the midpoint of a concentration-inhibition curve. For the compound `CO[C@H]1/C=C/O[C@@]2(C)Oc3c(C)c(O)c4c(c3C2=O)C2=NC3(CCN(CC(C)C)CC3)NC2=C(NC(=O)/C(C)=C\C=C\[C@H](C)[C@H](O)[C@@H](C)[C@@H](O)[C@@H](C)[C@H](OC(C)=O)[C@@H]1C)C4=O` [RIFABUTIN], the IC50 entry in assay [1], in assay [2], in assay [3], in assay [4], in assay [5] and in assay [6] was “Not Active” in each case. Moreover, the IC50 result in assay [7] (hek293) is recorded as “Not Active”.

Regarding `CC(C)c1nc(CN(C)C(=O)N[C@H](C(=O)N[C@@H](Cc2ccccc2)C[C@H](O)[C@H](Cc2ccccc2)NC(=O)OCc2cncs2)C(C)C)cs1` [RITONAVIR], the half-inhibitory concentration (IC50) entry in assay [1], in assay [2], in assay [3], in assay [4], in assay [5] and in assay [6] was “Not Active” each time. Besides, in assay [7] (hek293), the IC50 entry is given as “Not Active”.

Take `CC(C)CC(N(C)C)C1(c2ccc(Cl)cc2)CCC1` (configuration not stated) [SIBUTRAMINE]: the IC50 result in assay [1], in assay [2], in assay [3], in assay [4], in assay [5] and in assay [6] was “Not Active” throughout. Further, the IC50 entry in assay [7] (hek293) was “Not Active”.

For `[H]/N=C(/N)N[C@H]1[C@H](O)[C@@H](O)[C@H](O[C@@H]2O[C@@H](C)[C@](O)(C=O)[C@H]2O[C@@H]2O[C@@H](CO)[C@H](O)[C@@H](O)[C@@H]2NC)[C@@H](N/C(N)=N\[H])[C@@H]1O` [STREPTOMYCIN], the IC50 entry in assay [1], in assay [2], in assay [3], in assay [4], in assay [5] and in assay [6] was “Not Active” throughout. In assay [7] (hek293), the IC50 entry was “Not Active”.

As for `COc1cc(NS(=O)(=O)c2ccc(N)cc2)nc(OC)n1` [SULFADIMETHOXINE], the IC50 entry in assay [1], in assay [2], in assay [3], in assay [4], in assay [5] and in assay [6] was “Not Active” in each case. In addition, the IC50 entry in assay [7] (hek293) is recorded as “Not Active”.

With `Cc1cc(C)nc(NS(=O)(=O)c2ccc(N)cc2)n1` [SULFAMETHAZINE], the IC50 result in assay [1], in assay [2], in assay [3], in assay [4], in assay [5] and in assay [6] was “Not Active” each time. Further, the 50% inhibitory concentration (IC50) entry in assay [7] (hek293) is reported as “Not Active”.

Take `C[C@]1(Cn2ccnn2)[C@H](C(=O)O)N2C(=O)C[C@H]2S1(=O)=O` [TAZOBACTAM]: the IC50 result in assay [1], in assay [2], in assay [3], in assay [4], in assay [5] and in assay [6] was “Not Active” in each case. Moreover, the IC50 result in assay [7] (hek293) is “Not Active”.

For `CN1C(C(=O)Nc2ccccn2)=C(O)c2sccc2S1(=O)=O` [TENOXICAM], the IC50 result in assay [1], in assay [2], in assay [3], in assay [4], in assay [5] and in assay [6] was “Not Active” in each case. The IC50 entry in assay [7] (hek293) is “Not Active”.

As a reminder, the Ki is the dissociation constant of the complex between target and ligand, obtained from inhibition or displacement. Turning to `CC(C)(C)c1ccc(C(O)CCCN2CCC(C(O)(c3ccccc3)c3ccccc3)CC2)cc1` (configuration not stated) [TERFENADINE], the half-maximal inhibitory concentration (IC50) result in assay [1] was “Not Active”; in assay [2] it was “Not Active”; in assay [3], “Not Active”; in assay [4] (read-out: IC50) it was 3340 nM; in assay [5], “Not Active”; in assay [6] it was “Not Active”. Also, the half-inhibitory concentration (IC50) in assay [7] (read-out: IC50) was 1100 nM. The results for the inhibitory constant (Ki) in assay [4] (read-out: Ki) and in assay [7] (read-out: Ki) were 1850 nM and 852 nM, respectively.

Regarding `O=C1CCC(N2C(=O)c3ccccc3C2=O)C(=O)N1` (configuration not stated) [THALIDOMIDE], the IC50 result in assay [1], in assay [2], in assay [3], in assay [4], in assay [5] and in assay [6] was “Not Active” throughout. The IC50 result in assay [7] (hek293) is on record as “Not Active”.
